In assay [1] the test system is PC-12. Briefly: Neuritogenic activity in rat PC12 cells assessed as potentiation of 20 ng/ml NGF-induced neurite outgrowth at 10 uM. Format: functional, cell-based.
The test system of assay [2] is PC-12. Briefly: Neuritogenic activity in rat PC12 cells assessed as potentiation of 10 ng/ml NGF-induced neurite outgrowth at 1 uM after 4 days (reference value: 75.89 um). Format: functional.
The subject of assay [3] is PC-12. The assay is described as follows: Neuritogenic activity in rat PC12 cells assessed as potentiation of 10 ng/ml NGF-induced neurite outgrowth at 10 uM after 4 days NGF (reference value: 75.89 um). The class given is functional.
In assay [4] the test system is PC-12. Briefly: Neuritogenic activity in rat PC12 cells assessed as potentiation of 10 ng/ml NGF-induced neurite outgrowth at 40 uM after 4 days (reference value: 75.89 um). Format: functional.
Assay [5] deals with PC-12. The assay is described as follows: Neuritogenic activity in rat PC12 cells assessed as potentiation of 10 ng/ml NGF-induced neurite outgrowth at 40 uM after 96 hrs. The class given is functional, cell-based.
Assay [6] deals with PC-12. The assay is described as follows: Neuritogenic activity in rat PC12 cells assessed as change in cell morphology at 40 uM up to 24 hrs in presence of 10 ng/ml NGF. Format: functional, cell-based.
Assay [7] relates to PC-12. The assay is described as follows: Neuritogenic activity in rat PC12 cells assessed as appearance of short prominences at 40 uM after 48 hrs in presence of 10 ng/ml NGF. The class given is functional, cell-based.
The subject of assay [8] is PC-12. The assay is described as follows: Neuritogenic activity in rat PC12 cells assessed as elongation of prominences at 40 uM after 72 hrs in presence of 10 ng/ml NGF. Format: functional, cell-based.

Activity calls are given as the source filed them. No cut-off for these calls is given here.

For `CO[C@@]1(C)C[C@@H]2OCC3=CCCC[C@]32O1`, the outcome in assay [1] was Active. Further, the Activity came to 91.58 um in assay [2], 101.6 um in assay [3] and 122.4 um in assay [4].
Take `CC1(OCc2ccccc2)C[C@@H]2OCC3=CCCC[C@]32O1` (stereo partly drawn): the result in assay [1] was inactive.
In the case of `CC1(OC/C=C/c2ccccc2)C[C@@H]2OCC3=CCCC[C@]32O1` (stereo partly drawn), the outcome in assay [1] was inactive.
`COC1(C)C[C@@H]2OCC3=CCC[C@@H](CCOC(=O)Cc4cc(=O)oc5cc(N(C)C)ccc45)[C@]32O1` (stereo partly drawn): the outcome in assay [5], in assay [7] and in assay [8] was Active. Also, the outcome in assay [6] was inactive.
As for `CC(C)=CCOC1(C)C[C@@H]2OCC3=CCCC[C@]32O1` (stereo partly drawn), the result in assay [1] was inactive.
On to `CCCO[C@]1(C)C[C@@H]2OCC3=CCCC[C@]32O1`, for which the Activity is recorded as 65.35 um in assay [3] and 76.62 um in assay [4].
As for `CCCCO[C@]1(C)C[C@@H]2OCC3=CCCC[C@]32O1`, the figures for the Activity in assay [3] and in assay [4] were 55.82 um and 72.88 um, respectively.
Take `C=CCOC1(C)C[C@@H]2OCC3=CCCC[C@]32O1` (stereo partly drawn): the result in assay [1] was inactive.
With `CCCO[C@@]1(C)C[C@@H]2OCC3=CCCC[C@]32O1`, the Activity is given as 75.46 um in assay [3] and 84.11 um in assay [4].
For `CO[C@]1(C)C[C@@H]2OCC3=CCCC[C@]32O1`, the result in assay [1] was Active. For the same molecule, the Activity is 99.5 um in assay [2], 110.9 um in assay [3] and 125.5 um in assay [4].
Regarding `CCO[C@@]1(C)C[C@@H]2OCC3=CCCC[C@]32O1`, the Activity is reported as 86.03 um in assay [3] and 105.8 um in assay [4].
Consider `CCO[C@]1(C)C[C@@H]2OCC3=CCCC[C@]32O1`, for which the results for the Activity in assay [3] and in assay [4] were 92.24 um and 112.5 um, respectively.
In the case of `CCCCO[C@@]1(C)C[C@@H]2OCC3=CCCC[C@]32O1`, the Activity in assay [3] worked out at 47.69 um; in assay [4], 61.81 um.

The values are drawn from ChEMBL document CHEMBL1955850, “Syntheses of structurally-simplified and fluorescently-labeled neovibsanin derivatives and analysis of their neurite outgrowth activity in PC12 cells” (2012).
